Test results taken from US11420960B2, “Use of 5-oxazolidine-2,4-dione C-glycoside derivatives as moisturizer for the skin” (L'OREAL, priority 2018, dated 2022).

Test system: isolated stratum corneum (SC)
Experiment: Evaluation of the moisturizing potential on isolated stratum corneum by measurement with a Corneometer
Conditions: for Mean DHCMiactive agent corr: 5% by weight in water/n-propanol (80/20), 5 μl/cm2 on SC, T4h vs T0h, 75% relative humidity, 25° C., relative percentage with carrier control 0% and glycerol 100%; for dielectric capacitance of the stratum corneum (SC): compounds at 5% by weight
Method: B): Evaluation of the Moisturizing Potential on Isolated Stratum Corneum by Measurement with a Corneometer
A test was performed to evaluate the moisturizing potential of the compounds of the invention formulated in an aqueous solution to an amount of 5% by weight relative to the total weight of the composition.
The technique makes it possible to measure the dielectric capacitance of the stratum corneum (SC), which depends on the mean dielectric permittivity value of the tissue. The dielectric permittivity varies greatly with the amount of water contained in the SC.
The SC samples are conditioned at 75% relative humidity and at 25° C. before/during the measurements and the treatment. The capacitance measurement is performed using a Corneometer™ (Courage & Khazaka, Germany).
The compound tested, compounds 1, 2 and 3 according to the invention or a moisturizing active agent such as glycerol (humectant positive control), is dissolved in a water/n-propanol mixture (80/20) and the solution is deposited onto the SC at a rate of 5 μl/cm^2 followed by air-drying for a total duration of 4 h.
A measurement is taken at T0h, before the treatment, and a measurement T4h is taken after total drying of the treatment.
The variation in the level of moisturization between T0h and T4h is calculated for each condition tested and compared to the references (carrier control and positive control) and to its T0h. The experiments are carried out on at least two different batches of SC and three samples of SC per condition tested.
The variation in the corneometer signal (HCM) after treatment is calculated for each SC sample: DHCMi=HCMi(T4h)−HCMi(T0h).
The results are then expressed as relative percentage in relation to the references, the carrier control and the glycerol positive control corresponding to a level of 0% and 100%, respectively.
Thus, for each experiment, the following are measured: • For the carrier control: DHCMicarrier=HCMicarrier(T4h)−HCMicarrier(T0h) • For the positive control: DHCMiglycerol=HCMiglycerol(T4h)−HCMiglycerol(T0h) • For the active agent: DHCMiactive agent=HCMiactive agent(T4h)−HCMiactive agent(T0h) • % DHCMiactive agent=(DHCMiactive agent−DHCMicarrier)/((DHCMiglycerol−DHCMicarrier) • As specified above, according to this mode of calculation: • % DHCMicarrier=0% • % DHCMiglycerol=100%
The moisturizing potential of an active agent is therefore determined as relative percentage in relation to the positive control.

**Q.** `O=C1N=C(O)C(C2O[C@H](CO)[C@@H](O)[C@H](O)[C@H]2O)O1` (some centres unmarked) [Compound 1] was tested. Which “Mean DHCMiactive agent corr” value did it give?
**A.** 88%

**Q.** And the “dielectric capacitance of the stratum corneum (SC) in comparison with glycerol at the same concentration” value (in words, 5% by weight)?
**A.** of the same order

**Q.** What about the “dielectric capacitance of the stratum corneum (SC)” value (in words) of the same compound?
**A.** high

**Q.** Which results are given for `CN1C(=O)OC(C2O[C@H](CO)[C@@H](O)[C@H](O)[C@H]2O)C1=O` (some centres unmarked) [Compound 3]?
**A.** Mean DHCMiactive agent corr: 51%; dielectric capacitance of the stratum corneum (SC) (in words): high

**Q.** How did the “Mean DHCMiactive agent corr” value turn out when `OCC(O)CO` [Glycerol, glycerol, reference compound] was run?
**A.** 100%

**Q.** For `O=C1N=C(O)C(C2OC[C@@H](O)[C@H](O)[C@H]2O)O1` (some centres unmarked) [Compound 2], which “Mean DHCMiactive agent corr” value is on record?
**A.** 63%

**Q.** And the “dielectric capacitance of the stratum corneum (SC)” value (in words)?
**A.** high
